Test system: severe traumatic brain injury (sTBI)
Assay: sTBI in rats, brain gene expression arrays and pathway analysis (Example 9)
Assay type: in vivo, Male Wistar rats
Design: key to z score, canonical pathway Dendritic Cell Maturation / z score, canonical pathway Adrenomedullin Signaling pathway / z score, canonical pathway Endothelin-1 Signaling / effect on canonical pathway Adrenomedullin Signaling pathway / effect on canonical pathway Endothelin-1 Signaling / effect on canonical pathway Dendritic Cell Maturation / Ingenuity canonical pathway Adrenomedullin signaling pathway, z score / Ingenuity canonical pathway FLT3 Signaling in Hematopoietic Progenitor Cells, z score / Ingenuity canonical pathway Opioid Signaling Pathway, z score / Ingenuity canonical pathway VDR/RXR Activation, z score / Ingenuity canonical pathway Neuropathic Pain Signaling In Dorsal Horn Neurons, z score / Ingenuity canonical pathway STAT3 Pathway, z score / Ingenuity canonical pathway IL-1 Signaling, z score / Ingenuity canonical pathway IL-6 Signaling, z score / Ingenuity canonical pathway NF-κB Signaling, z score / Ingenuity canonical pathway Role of NFAT in Cardiac Hypertrophy, z score / Ingenuity canonical pathway PPARα/RXRα Activation, z score: *: ambiguous effect
Experimental: The experimental protocol used in this study was approved by the Ethical Committee of the Catholic University of Rome, according to international standards and guidelines for animal care. Male Wistar rats of 300-350 g body weight were fed with standard laboratory diet and water ad libitum in a controlled environment. As the anesthetic mixture, the animals received 35 mg/kg b.w. ketamine and 0.25 mg/kg body weight midazolam by i.p. injection. Severe traumatic brain injury (sTBI) was induced by dropping a 450 g weight from 2 m height on to the rat head that had been protected by a metal disk previously fixed on the skull, according to the “weight drop” impact acceleration model (Marmarou et al., A new model of diffuse brain injury in rats. Part I: Pathophysiology and biomechanics. J Neurosurg. 1994; 80: 291-300). […] At the end of each period of treatment, rats were anesthetized again and then immediately sacrificed.
LMW-DS (Tikomed AB) was provided at a stock concentration of 20 mg/ml and was kept in a temperature-monitored refrigerator at 4° C. LMW-DS aliquots were diluted to the appropriate dosing concentration in sterile saline prior to delivery of a single subcutaneous injection.
Three doses of LMW-DS were administered subcutaneously 30 minutes post-TBI. The animals were sacrificed at 2 days post-TBI. The animals were divided into the following subgroups:
Three doses of LMW-DS were administered subcutaneously 30 minutes post-TBI. The animals were sacrificed at 7 days post-TBI. The animals were divided into the following subgroups:
An in vivo craniectomy was performed on all animals during anesthesia. After carefully removing the rat's skull, the brain was exposed and removed with a surgical spatula and quickly dropped in RNALater and preserved at 4° C. for further processing.
RNA extraction and array processing was carried out by SourceBioscience. The arrays used were the Agilent Rat expression arrays.
Statistical analysis was carried out using the Metaboanalyst software package. Gene expression changes of 10% with a p<0.05 were regarded as significant.
Pathway analysis of the differentially regulated genes was carried out using the Ingenuity pathway analysis package. The analysis was performed with special reference to pathways and molecular processes and diseases associated with neurodegenerative disease, including dementia, Alzheimer's disease, ALS, TBI and stroke, and with scarring and fibrosis, including glaucoma and normal pressure hydrocephalus (NPH) after subarachnoid haemorrhage.

[1] = TBI + 5 mg/kg LMW-DS, after 7 days, TBI: Inhibited
[2] = TBI + 15 mg/kg LMW-DS, 2 days after TBI
[3] = TBI + 15 mg/kg LMW-DS, 7 days after TBI
[4] = TBI + 15 mg/kg LMW-DS, 7 days after TBI, relative to control
[5] = TBI + 15 mg/kg LMW-DS, after 7 days, TBI: Activated
[6] = TBI + 15 mg/kg LMW-DS, after 7 days, TBI: Inhibited
[7] = TBI + 15 mg/kg repeat dose LMW-DS, after 7 days, TBI: Activated
[8] = TBI + 15 mg/kg repeat dose LMW-DS, after 7 days, TBI: Inhibited

low molecular weight dextran sulfate [LMW-DS]
2.365: z score: Leukocyte migration [3]
Activated: Diseases or functions annotation: Organization of cytoskeleton [1] | Diseases or functions annotation: Pelvic tumor [1] | Diseases or functions annotation: Quantity of cells [1] | Diseases or functions annotation: Quantity of connective tissue [1] | Diseases or functions annotation: Secretion of molecule [1] | Diseases or functions annotation: Size of body [1] | Diseases or functions annotation: Solid tumor [1] | Diseases or functions annotation: Synthesis of lipid [1] | Diseases or functions annotation: Transcription [1] | Diseases or functions annotation: Transcription of RNA [1] | Diseases or functions annotation: Transport of molecule [1] | Diseases or functions annotation: Vasculogenesis [1] | Diseases or functions annotation: Apoptosis of tumor cell lines [2] | Ingenuity canonical pathway: Endothelin-1 Signaling [3] | Ingenuity canonical pathway: Phospholipase C Signaling [3] | Ingenuity canonical pathway: cAMP-mediated signaling [3] | Diseases or functions annotation: Apoptosis of tumor cell lines [5] | Diseases or functions annotation: Cell death of tumor cell lines [5] | Diseases or functions annotation: Extracranial solid tumor [5] | Diseases or functions annotation: Necrosis [5] | Diseases or functions annotation: Cancer [6] | Diseases or functions annotation: Carcinoma [6] | Diseases or functions annotation: Cell movement of myeloid cells [6] | Diseases or functions annotation: Development of carcinoma [6] | Diseases or functions annotation: Development of connective tissue cells [6] | Diseases or functions annotation: Differentiation of bone cells [6] | Diseases or functions annotation: Epithelial neoplasm [6] | Diseases or functions annotation: Genitourinary tumor [6] | Diseases or functions annotation: Leukocyte migration [6] | Diseases or functions annotation: Non-melanoma solid tumor [6] | Diseases or functions annotation: Quantity of cells [6] | Diseases or functions annotation: Solid tumor [6] | Diseases or functions annotation: Transcription [6] | Diseases or functions annotation: Transcription of RNA [6] | Diseases or functions annotation: Tumorigenesis of epithelial neoplasm [6] | Diseases or functions annotation: Tumorigenesis of tissue [6] | Diseases or functions annotation: Extracranial solid tumor [7] | Diseases or functions annotation: Obesity [7] | Diseases or functions annotation: Seizure disorder [7] | Diseases or functions annotation: Skin lesion [7] | Diseases or functions annotation: Branching of cells [8] | Diseases or functions annotation: Cell movement [8] | Diseases or functions annotation: Cell-cell contact [8] | Diseases or functions annotation: Concentration of hormone [8] | Diseases or functions annotation: Development of gap junctions [8] | Diseases or functions annotation: Development of neurons [8] | Diseases or functions annotation: Developmental process of synapse [8]
1: Ingenuity canonical pathway Endothelin-1 Signaling, z score [4] | Ingenuity canonical pathway cAMP-mediated signaling, z score [4]
0.178: z score: Cell death of tumor cell lines [3]
1.474: z score: Extracranial solid tumor [3]
0.766: z score: Development of connective tissue cells [3]
−1.269: z score: Cell death [3]
−0.272: z score: Abdominal neoplasm [3]
Inhibited: Diseases or functions annotation: Proliferation of connective tissue cells [1] | Diseases or functions annotation: Proliferation of epithelial cells [1] | Diseases or functions annotation: Tumorigenesis of tissue [1] | Diseases or functions annotation: Apoptosis [2] | Diseases or functions annotation: Behavior [2] | Diseases or functions annotation: Cell death [2] | Diseases or functions annotation: Necrosis [2] | Diseases or functions annotation: Quantity of blood cells [2] | Diseases or functions annotation: Quantity of cells [2] | Diseases or functions annotation: Quantity of lymphocytes [2] | Diseases or functions annotation: Apoptosis [5] | Diseases or functions annotation: Cell death [5] | Diseases or functions annotation: Development of malignant tumor [5] | Diseases or functions annotation: Frequency of tumor [5] | Diseases or functions annotation: Incidence of tumor [5] | Diseases or functions annotation: Abdominal neoplasm [6] | Diseases or functions annotation: Digestive organ tumor [7] | Diseases or functions annotation: Gastrointestinal tumor [7] | Diseases or functions annotation: Hematologic cancer [7] | Diseases or functions annotation: Hematopoietic neoplasm [7] | Diseases or functions annotation: Abdominal cancer [8] | Diseases or functions annotation: Abdominal neoplasm [8] | Diseases or functions annotation: Adenocarcinoma [8] | Diseases or functions annotation: Carcinoma [8] | Diseases or functions annotation: Concentration of lipid [8] | Diseases or functions annotation: Dendritic growth/branching [8] | Diseases or functions annotation: Development of connective tissue cells [8]
0.517: z score: Transcription of RNA [3]
1.705: z score: Cancer [3]
0.991: z score: Quantity of cells [3]
0.918: z score: Tumorigenesis of tissue [3]
−0.865: z score: Incidence of tumor [3]
0.775: z score: Epithelial neoplasm [3]
0.747: z score: Transcription [3]
0.903: z score: Differentiation of bone cells [3]
1.121: z score: Non-melanoma solid tumor [3]
0.152: z score: Tumorigenesis of epithelial neoplasm [3]
0.783: z score: Apoptosis of tumor cell lines [3]
0.992: z score: Solid tumor [3]
1.067: z score: Carcinoma [3]
2: Ingenuity canonical pathway Phospholipase C Signaling, z score [4]
1.197: z score: Cell movement of myeloid cells [3]
−0.256: z score: Apoptosis [3]
−0.774: z score: Development of malignant tumor [3]
0.224: z score: Quantity of Ca^2+ [3]
1.746: z score: Genitourinary tumor [3]
*: Ingenuity canonical pathway Adrenomedullin signaling pathway, z score [4]
−1.519: z score: Frequency of tumor [3]
0.213: z score: Necrosis [3]
